≈ marks a conversion by molar mass, not a printed value. Where two headings read alike, the source gives them in different places.
Experiments:
Assay type in all cases: cell-based
E. coli ATCC 25922 = assay: In vitro antibacterial evaluation, MIC by agar dilution, E. coli ATCC 25922; conditions: Escherichia coli, ATCC25922, read-out: MIC
Protocol: (§1) The compounds of the invention were evaluated against several β-lactamresistant bacteria strains by determining the minimum inhibitory concentration (MIC, μg/ml) of each compound with respect to each strain. The MIC, the lowest concentration of antibiotic which inhibits growth of the test organism, was determined by the agar dilution method.
(§2) To determine the MIC for bacterial isolates, the test compound was incorporated in a series of two-fold dilutions into liquified Mueller-Hinton agar. Upon solidification, a number of different bacterial strains were spot inoculated with a replicating device onto the agar surface. […] The procedures used in these studies have been standardized by the National Committee for Clinical Laboratory Standards (NCCLS), as per the NCCLS publication entitled METHODS FOR DILUTION ANTIMICROBIAL SUSCEPTIBILITY TESTS (1991), which is incorporated herein by reference.
(§3) Aliquots of antimicrobial agents were prepared in phosphate buffered saline (PBS) at pH 7.2. Tween 20 or DMSO was used as a solubilizing vehicle as needed. Standard methods of vortexing, sonicating and gentle heat were used to facilitate solubilizing the test agent. Typically, the concentration of the stock solution was 10× that of the highest drug concentration tested. A 1.28 mg/mL stock solution was used with a subsequent highest working concentration of 128 μg/mL. Serial two-fold dilutions were done through ≤0.25 μg/mL. Each drug level was tested in duplicate. Two-fold drug dilutions were done in sterile 50 mL tubes with a final drug volume of 5 mL. Upon the addition of 45 mL of molten agar, a 10-fold dilution resulted. Two, 25 mL. plates were then poured into 15×150 mm square Petri plates with grids and allowed to harden.
(§4) A control plate with a reference drug, either cefotaxime, vancomycin or imipenem, was used as the positive growth control. Stock concentrations of reference antibiotics were prepared and frozen at -80° C. Upon preparation, the control plates were sealed and stored in the refrigerator for up to 1 week prior to use; however, imipenem control plates had to be prepared just prior to use. All test plates were used within 24 hours of preparation.
(§5) Satisfactory results were obtained where the inoculum contained about 10^4 colony forming units (cfu) ±0.5 logs. Starting with pure cultures of the test isolates on agar plates, a few isolated colonies were transferred to a tube of nutrient broth and allowed to grow 4-6 hours at 35°-36° C. to reach log-phase growth. Dropwise addition of the broth culture to PBS was done to match a 0.5 McFarland turbidity standard equal to 10^8 cfu/mL. This was further diluted ten-fold in PBS to reach a working inoculum concentration of 10^7 cfu/mL. When 1 μL of the working inoculum was applied to the agar surface a concentration of about 10^4 cfu per spot was obtained.
(§6) Disposable sterile 1 μL loops were used to inoculate test plates, with each isolate in a designated grid on the agar plate. An alternate method of inoculation involved the use of a replica plater, a device with 48 steel pins allowing the simultaneous inoculation of multiple isolates. After the spots had dried, the plates were incubated at 35°-36° C. for 16-20 hours. Endpoints were assessed as the minimum inhibitory concentration (MIC) of antimicrobial agent.

[1] = system: S. aureus 76 (Meth^R)(lac^+); assay: In vitro antibacterial evaluation, MIC by agar dilution, S. aureus 76; conditions: Staphylococcus aureus, read-out: MIC
Protocol: as §1, §2, §3, §4, §5, §6

E. faecium ATCC 35667 = assay: In vitro antibacterial evaluation, MIC by agar dilution, E. faecium ATCC 35667; conditions: Enterococcus faecium, ATCC35667, read-out: MIC
Protocol: as §1, §2, §3, §4, §5, §6

[2] = system: S. aureus Col8A (Meth^S)(lac^-); assay: In vitro antibacterial evaluation, MIC by agar dilution, S. aureus Col8A; conditions: Staphylococcus aureus
Protocol: as §1, §2, §3, §4, §5, §6
The novel agents of this invention are notable for their enhanced activity against S. aureus Col and Enterococci (E. faecium and E. faecalis). The S. aureus Col strain is a high-level PBP2a producer, whereas S. aureus Col 8A, its isogenic partner, lacks PBP2a. […] Thus, the compounds of the present invention are effective against PBP2a-producing bacteria.

[3] = system: S. epidermidis ATCC 31432; assay: In vitro antibacterial evaluation, MIC by agar dilution, S. epidermidis ATCC 31432; conditions: Staphylococcus epidermidis, ATCC31432
Protocol: as §1, §2, §3, §4, §5, §6

S. haemolyticus (Meth^R) = assay: In vitro antibacterial evaluation, MIC by agar dilution, S. haemolyticus; conditions: Staphylococcus haemolyticus, read-out: MIC
Protocol: as §1, §2, §3, §4, §5, §6

S. aureus ATCC 29213 = assay: In vitro antibacterial evaluation, MIC by agar dilution, S. aureus ATCC 29213; conditions: Staphylococcus aureus, ATCC29213
Protocol: as §1, §2, §3, §4, §5, §6

P. aeruginosa ATCC 27853 = assay: In vitro antibacterial evaluation, MIC by agar dilution, P. aeruginosa ATCC 27853; conditions: Pseudomonas aeruginosa, ATCC27853, read-out: MIC
Protocol: as §1, §2, §3, §4, §5, §6

[4] = S. epidermidis ATCC 31432, read-out: MIC

SMILES | MIC (E. coli ATCC 25922) [µg/mL] | MIC [1] [µg/mL] | MIC (E. faecium ATCC 35667) [µg/mL] | MIC [2] [µg/mL] | MIC [3] [µg/mL] | MIC (S. haemolyticus (Meth^R)) [µg/mL] | MIC (S. aureus ATCC 29213) [µg/mL] | MIC (P. aeruginosa ATCC 27853) [µg/mL] | MIC [3, 4] [µg/mL] | MIC (S. aureus ATCC 29213; S. aureus ATCC 29213, read-out: MIC) [µg/mL]
O=C(Cc1ccccc1)N[C@@H]1C(=O)N2C(C(=O)O)=C(Sc3ccccc3-c3ccco3)CS[C@H]12 [Cmpd 27, (7R)-7-[(Phenylacetyl)amino]-3-(2-(2-furyl)phenylthio)-3-cephem-4-carboxylic acid] | > 32 | 4 (≈ 8.12 µM) | 1 (≈ 2.03 µM) | < 0.25 | < 0.25 | 16 (≈ 32.5 µM) | < 0.25 | – | – | –
O=C(Cc1ccccc1)N[C@@H]1C(=O)N2C(C(=O)O)=C(Sc3cccc4ccccc34)CS[C@H]12 [Cmpd 54, (7R)-7-[(Phenylacetyl)amino]-3-(1-naphthalenylthio)-3-cephem-4-carboxylic acid] | > 32 | 8 (≈ 16.8 µM) | 4 (≈ 8.39 µM) | < 0.25 | < 0.25 | 16 (≈ 33.6 µM) | < 0.25 | > 32 | – | –
O=C(Cc1cccs1)N[C@@H]1C(=O)N2C(C(=O)O)=C(Sc3ccccc3I)CS[C@H]12 [Cmpd 25, (7R)-7-[(2-Thienylacetyl)amino]-3-(o-iodophenylthio)-3-cephem-4-carboxylic acid] | > 32 | 4 (≈ 7.16 µM) | 2 (≈ 3.58 µM) | 0.125 (≈ 0.224 µM) | – | 16 (≈ 28.7 µM) | 0.125 (≈ 0.224 µM) | – | < 0.06 | –
O=C(Cc1cccs1)N[C@@H]1C(=O)N2C(C(=O)O)=C(Sc3ccccc3Br)CS[C@H]12 [Cmpd 20, (7R)-7-[(2-Thienylacetyl)amino]-3-(o-bromophenylthio)-3-cephem-4-carboxylic acid] | > 32 | 4 (≈ 7.82 µM) | 2 (≈ 3.91 µM) | < 0.25 | < 0.25 | 8 (≈ 15.6 µM) | < 0.25 | – | – | –
O=C(COc1ccc(Cl)cc1)N[C@@H]1C(=O)N2C(C(=O)O)=C(Sc3ccccc3I)CS[C@H]12 [Cmpd 30, (7R)-7-[(p-Chlorophenoxyacetyl)amino]-3-(o-iodophenylthio)-3-cephem-4-carboxylic acid] | > 32 | 2 (≈ 3.32 µM) | 1 (≈ 1.66 µM) | < 0.25 | < 0.25 | 4 (≈ 6.64 µM) | < 0.25 | 13 (≈ 21.6 µM) | – | –
O=C(COc1ccc(Cl)cc1)N[C@@H]1C(=O)N2C(C(=O)O)=C(Sc3cc(Cl)ccc3Cl)CS[C@H]12 [Cmpd 31, (7R)-7-[(p-Chlorophenoxyacetyl)amino]-3-(2,5-dichlorophenylthio)-3-cephem-4-carboxylic acid] | > 32 | 4 (≈ 7.33 µM) | 4 (≈ 7.33 µM) | < 0.25 | < 0.25 | 8 (≈ 14.7 µM) | < 0.25 | – | – | –
O=C(Cc1cccs1)N[C@@H]1C(=O)N2C(C(=O)O)=C(Sc3cc(Cl)ccc3Cl)CS[C@H]12 [Cmpd 26, (7R)-7-[(2-Thienylacetyl)amino]-3-(2,5-dichlorophenylthio)-3-cephem-4-carboxylic acid] | > 32 | 4 (≈ 7.98 µM) | 2 (≈ 3.99 µM) | < 0.25 | < 0.25 | 8 (≈ 16 µM) | < 0.25 | – | – | –
O=C(Cc1ccccc1)N[C@@H]1C(=O)N2C(C(=O)O)=C(Sc3cc(F)ccc3Br)CS[C@H]12 [Cmpd 33, (7R)-7-[(Phenylacetyl)amino]-3-(2-bromo-5-fluorophenylthio)-3-cephem-4-carboxylic acid] | > 32 | 4 (≈ 7.64 µM) | 1 (≈ 1.91 µM) | < 0.25 | < 0.25 | 16 (≈ 30.6 µM) | < 0.25 | – | – | –
COc1ccc(CC(=O)N[C@@H]2C(=O)N3C(C(=O)O)=C(Sc4cc(Cl)ccc4Cl)CS[C@H]23)cc1 [Cmpd 32, (7R)-7-[(p-Methoxyphenylacetyl)amino]-3-(2,5-dichlorophenylthio)-3-cephem-4-carboxylic acid] | > 32 | 4 (≈ 7.61 µM) | 2 (≈ 3.81 µM) | < 0.25 | < 0.25 | 16 (≈ 30.5 µM) | < 0.25 | – | – | –
O=C(Cc1ccccc1)N[C@@H]1C(=O)N2C(C(=O)O)=C(Sc3ccc(Cl)c(Cl)c3)CS[C@H]12 [Cmpd 18, (7R)-7-[(Phenylacetyl)amino]-3-(3,4-dichlorophenylthio)-3-cephem-4-carboxylic acid] | > 32 | 16 (≈ 32.3 µM) | 4 (≈ 8.07 µM) | < 0.25 | < 0.25 | 32 (≈ 64.6 µM) | < 0.25 | – | – | –
Nc1nc(/C(=N/O)C(=O)N[C@@H]2C(=O)N3C(C(=O)O)=C(Sc4ccccc4I)CS[C@H]23)cs1 [Cmpd 22, (7R)-7-[(Z)-2-(aminothiazol-4-yl)-2-(hydroxyimino)acetamido]-3-(o-iodophenylthio)-3-cephem-4-carboxylic acid] | 4 (≈ 6.63 µM) | 4 (≈ 6.63 µM) | 2 (≈ 3.31 µM) | 0.5 (≈ 0.829 µM) | – | 4 (≈ 6.63 µM) | – | – | < 0.25 | < 0.25
N#Cc1ccc(-c2ccccc2SC2=C(C(=O)O)N3C(=O)[C@@H](NC(=O)Cc4ccccc4)[C@H]3SC2)cc1 [Cmpd 23, (7R)-7-[(Phenylacetyl)amino]-3-(2-(4-cyanophenyl)phenylthio)-3-cephem-4-carboxylic acid] | > 32 | 8 (≈ 15.2 µM) | 2 (≈ 3.79 µM) | < 0.25 | < 0.25 | 16 (≈ 30.3 µM) | < 0.25 | – | – | –
O=C(Cc1ccccc1)N[C@@H]1C(=O)N2C(C(=O)O)=C(Sc3cccc(Cl)c3Cl)CS[C@H]12 [Cmpd 24, (7R)-7-[(Phenylacetyl)amino]-3-(2,3-dichlorophenylthio)-3-cephem-4-carboxylic acid] | > 32 | 4 (≈ 8.07 µM) | 2 (≈ 4.04 µM) | < 0.25 | < 0.25 | 8 (≈ 16.1 µM) | < 0.25 | – | – | –
O=C(Cc1ccccc1)N[C@@H]1C(=O)N2C(C(=O)O)=C(Sc3cccc4oc5ccccc5c34)CS[C@H]12 [Cmpd 21, (7R)-7-[(Phenylacetyl)amino]-3-(dibenzofuranyl-1-thio)-3-cephem-4-carboxylic acid] | > 32 | 4 (≈ 7.74 µM) | 4 (≈ 7.74 µM) | < 0.25 | < 0.25 | 32 (≈ 61.9 µM) | < 0.25 | – | – | –
COC(=O)c1ccccc1SC1=C(C(=O)O)N2C(=O)[C@@H](NC(=O)Cc3ccccc3)[C@H]2SC1 [Cmpd 19, (7R)-7-[(Phenylacetyl)amino]-3-(o-carbomethoxyphenylthio)-3-cephem-4-carboxylic acid] | > 32 | 16 (≈ 33 µM) | 2 (≈ 4.13 µM) | < 0.25 | < 0.25 | 32 (≈ 66 µM) | < 0.25 | – | – | –
COc1ccc(CC(=O)N[C@@H]2C(=O)N3C(C(=O)O)=C(Sc4ccccc4I)CS[C@H]23)cc1 [Cmpd 29, (7R)-7-[(p-Methoxyphenylacetyl)amino]-3-(o-iodophenylthio)-3-cephem-4-carboxylic acid] | > 32 | 4 (≈ 6.87 µM) | 1 (≈ 1.72 µM) | < 0.25 | < 0.25 | 16 (≈ 27.5 µM) | < 0.25 | – | – | –
O=C(Cc1ccccc1)N[C@@H]1C(=O)N2C(C(=O)O)=C(Sc3ccc(Cl)cc3Cl)CS[C@H]12 [Cmpd 28, (7R)-7-[(Phenylacetyl)amino]-3-(2,4-dichlorophenylthio)-3-cephem-4-carboxylic acid] | > 32 | 4 (≈ 8.07 µM) | 2 (≈ 4.04 µM) | < 0.25 | < 0.25 | 8 (≈ 16.1 µM) | < 0.25 | – | – | –

From patent publication US5607926A, “Cephalosporin antibiotics” (Microcide Pharmaceuticals, Inc., priority 1995, dated 1997)
